Test: Critical aggregation concentration from NBD fluorescence (literature)
Assay type: physicochemical
Details: extrapolated from the co-solvent effect on NBD–Cn
Description: One important aspect which is usually overlooked in the studies of interactions with P–gp is whether the molecule of interest is in its monomeric state or aggregated. Some studies with detergents have included information regarding the formation of micelles and concluded that a complex effect on the ATPase activity (enhancement and inhibition) is observed even for concentrations below their CMC [21, 32, 91]. However, small aggregates are formed at concentrations several orders of magnitude smaller than the concentration at which micelles are detectable (their CMC). The aggregation behavior of the NBD amphiphiles used in this study was characterized by changes in the fluorescence properties of the NBD group and is, therefore, sensitive to the formation of small aggregates including dimers. The critical aggregation concentrations (CAC) at 25 °C are 1, 4, and 250 μM for NBD–C8, NBD–LysoMPE, and NBD–C4, respectively. […] An increase to at least 24 µM is thus predicted for NBD–LysoMPE.

CAC predicted in the presence of co-solvents: at least 24 µM
Structure (SMILES): CCCCCCCCCCCCCC(=O)OCC(O)COP(=O)(O)OCCNc1ccc([N+](=O)[O-])c2nonc12 (stereo not shown) [NBD–LysoMPE]

— article PMC9862096, “Interaction of a Homologous Series of Amphiphiles with P-glycoprotein in a Membrane Environment—Contributions of Polar and Non-Polar Interactions” (Pharmaceutics, 2023)
